Results from ChEMBL document CHEMBL1150870, “Trichoflectin, a bioactive azaphilone from the ascomycete Trichopezizella nidulus” (1998).

Key:
Type in all cases: functional
Conditions in all cases: read-out: IZ
Lachnellula = assay: Inhibition of DHN-melanin biosynthesis in Lachnellula sp. A32-89 assessed as pigment inhibition zone at 50 ug/disk by agar diffusion assay
Rhizomucor miehei = assay: Antimicrobial activity against Mucor miehei at 50 ug/disk
Bacillus subtilis = assay: Antimicrobial activity against Bacillus subtilis at 50 ug/disk

Structure (SMILES)	zone of inhibition at 50 µg/disc (Lachnellula) [mm]	zone of inhibition at 50 µg/disc (Rhizomucor miehei) [mm]	zone of inhibition at 50 µg/disc (Bacillus subtilis) [mm]
C/C=C/C1=CC2=CC(=O)[C@@]3(C)OC(=O)C(C(C)=O)=C3C2=CO1 [TRICHOFLECTIN]	19	23	23
COc1cc(O)c2c(c1)C(=O)C1=C(COC(C)=C1)C2=O	14	–	–
CC1=CC2=C(CO1)C(=O)c1c(O)cc(O)cc1C2=O	14	–	–
